Test results: US7160890B2, “Compounds specific to adenosine A3 receptor and uses thereof” (OSI Pharmaceuticals, Inc., priority 1999, dated 2007)
Each block holds one molecule with its values, some of them ahead of it.

What was measured:
[1] = target: human A1 adenosine receptor (Homo sapiens, UniProt P30542); settings: cited from earlier work
[2] = target: T1, human A2a receptor subtype (Homo sapiens, UniProt P29274); assay: Adenosine 2a receptor subtype competition radioligand binding, [3H]CGS-21680, HEK293 membranes; settings: Table 13, concentration not given
T1 construct: expressed in transfected cells; host or cells: HEK-293 (Cadus clone #5)

[3] = target: T2, human A1 receptor subtype (Homo sapiens, UniProt P30542); settings: Table 13, concentration not given
T2 sequence (P30542 1-326): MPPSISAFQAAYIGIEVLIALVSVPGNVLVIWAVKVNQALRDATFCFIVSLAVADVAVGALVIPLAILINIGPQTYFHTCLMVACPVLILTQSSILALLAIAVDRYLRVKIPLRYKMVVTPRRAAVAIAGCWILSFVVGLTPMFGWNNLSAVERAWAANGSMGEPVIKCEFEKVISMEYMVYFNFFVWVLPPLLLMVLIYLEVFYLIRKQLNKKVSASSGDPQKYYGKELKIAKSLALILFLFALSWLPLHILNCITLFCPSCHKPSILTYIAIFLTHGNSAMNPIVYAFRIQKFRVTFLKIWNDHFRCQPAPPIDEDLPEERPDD

[4] = target: T3, human A3 receptor subtype (Homo sapiens, UniProt P0DMS8); assay: Adenosine 3 receptor competition radioligand binding, [125I]AB-MECA, HEK293 membranes; settings: compared with compound 1308
T3 construct: expressed in transfected cells; host or cells: HEK293
T3 sequence (P0DMS8 1-318): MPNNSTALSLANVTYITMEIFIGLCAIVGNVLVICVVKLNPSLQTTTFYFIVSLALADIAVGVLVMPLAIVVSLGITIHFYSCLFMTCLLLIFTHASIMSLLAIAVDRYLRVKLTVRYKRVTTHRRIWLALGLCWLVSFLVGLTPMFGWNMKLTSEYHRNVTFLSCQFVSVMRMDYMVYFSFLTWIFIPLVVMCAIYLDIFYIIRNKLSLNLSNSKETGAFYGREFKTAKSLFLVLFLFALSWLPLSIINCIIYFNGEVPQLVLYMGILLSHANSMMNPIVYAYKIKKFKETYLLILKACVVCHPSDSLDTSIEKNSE

T1 sequence (P29274 whole entry): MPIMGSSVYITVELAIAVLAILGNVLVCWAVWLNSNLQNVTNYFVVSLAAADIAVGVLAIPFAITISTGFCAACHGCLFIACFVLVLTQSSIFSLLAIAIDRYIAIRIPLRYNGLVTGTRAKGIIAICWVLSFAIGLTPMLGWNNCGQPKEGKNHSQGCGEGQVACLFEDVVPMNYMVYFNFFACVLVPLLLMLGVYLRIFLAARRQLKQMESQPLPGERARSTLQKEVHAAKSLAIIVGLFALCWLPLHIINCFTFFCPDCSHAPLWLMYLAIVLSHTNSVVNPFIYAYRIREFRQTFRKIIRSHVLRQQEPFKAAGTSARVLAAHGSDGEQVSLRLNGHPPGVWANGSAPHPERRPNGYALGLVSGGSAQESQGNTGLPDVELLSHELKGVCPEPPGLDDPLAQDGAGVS

SMILES: CC(Cc1ccccc1)Nc1ncnc2c1ncn2[C@@H]1O[C@H](CO)[C@@H](O)[C@H]1O (single isomer, unassigned; (-)) [PIA, (−)-N6-(2-phenylisopropyl)-adenosine]
reported affinity [1]: approximately 50 nM

SMILES: CNC(=O)NCCCNc1nc(-c2ccccc2)nc2[nH]c(C)c(C)c12 [Compound 1310]
Binding A2a, value given in % [2]: 76%

SMILES: Cc1[nH]c2nc(-c3ccccc3)nc(NCCNC(=O)C3(N)CC3)c2c1C [Compound 1313]
Binding A1, value printed in % [3]: 30%

A3 receptor binding affinity relative to reference compound 1308 [4]: greater than 10 times | melting point: 234 to 235 °C
SMILES: c1ccc(-c2nc(NCCc3cnc[nH]3)c3cc[nH]c3n2)cc1 [Compound 1720, [2-(3H-Imidazol-4-yl)-ethyl]-(2-phenyl-7H-pyrrolo[2,3-d]pyrimidin-4-yl)-amine]
